US6235973A, “Expression of magainin and PGL classes of antimicrobial peptide genes in plants, and their use in creating resistance to multiple plant pathogens” (Sanford Scientific, Inc., priority 1998, dated 2001)
Values joined by “and” are separate entries in the source; they are usually repeats but may differ in a detail not shown here. Equal values may be shown once. Residues, ends and D or L forms follow the SMILES beside them.

Experiments:
[1] = system: Botrytis cinerea; test: Anti-Botrytis leaf disk bioassay, transgenic poinsettia; settings: control = 100
[2] = system: Botrytis cinerea; test: Anti-Botrytis leaf disk bioassay, transgenic petunia; settings: control = 100
[3] = system: Rhizoctonia solani R2; settings: Rhizoctonia solani R2, mycelial fragments
[4] = system: Phytophthora parasitica (vinca); test: In vitro MIC, microtiter serial dilution; assay type: cell-based
[5] = system: Pseudomonas syringae and Erwinia carotovora; settings: for activity against log phase-grown Pseudomomas and Erwinia: compared with MSI-99 and D5-C
[6] = system: Thielaviopsis basicola; test: In vitro MIC, microtiter serial dilution; assay type: cell-based
[7] = system: Erwinia carotovora; test: In vitro MIC, microtiter serial dilution; assay type: cell-based; settings: inhibits all growth after 24 hrs
[8] = system: Fusarium solani; test: In vitro MIC, microtiter serial dilution; assay type: cell-based
[9] = system: Phytophthora parasitica (petunia); test: In vitro MIC, microtiter serial dilution; assay type: cell-based; settings: germinated
[10] = system: Pseudomonas syringae; test: In vitro MIC, microtiter serial dilution; assay type: cell-based; settings: inhibits all growth after 24 hrs
[11] = system: Botrytis cinerea; test: In vitro MIC, microtiter serial dilution; assay type: cell-based
[12] = system: Fusarium graminearum; assay type: cell-based; settings: non-germinated
[13] = plasmid 144, three distinct plants
[14] = plasmid 143, three distinct plants

SMILES	Minimum Inhibitory Concentration [3]	Minimum Inhibitory Concentration ([4]; germinated)	Minimum Inhibitory Concentration ([4]; non-germinated)	MIC [5]	Minimum Inhibitory Concentration ([6]; germinated)	Minimum Inhibitory Concentration ([6]; non-germinated)	Minimum Inhibitory Concentration [7]	Minimum Inhibitory Concentration ([8]; germinated)	Minimum Inhibitory Concentration ([8]; non-germinated)	Minimum Inhibitory Concentration [9]	Minimum Inhibitory Concentration [10]	Minimum Inhibitory Concentration ([11]; germinated)	Minimum Inhibitory Concentration ([11]; non-germinated)	Minimum Inhibitory Concentration [12]	activity against log phase-grown Pseudomomas and Erwinia [5]	also measured
CC[C@H](C)[C@H](NC(=O)[C@H](CCCCN)NC(=O)[C@H](CCCNC(=N)N)NC(=O)[C@H](C)NC(=O)[C@H](CC(C)C)NC(=O)[C@H](CCCCN)NC(=O)[C@H](CCCCN)NC(=O)[C@H](CC(C)C)NC(=O)[C@H](CCCNC(=N)N)NC(=O)[C@H](CCCNC(=N)N)NC(=O)CNC(=O)[C@@H](NC(=O)[C@H](CCCNC(=N)N)NC(=O)[C@H](CCCCN)NC(=O)[C@@H](NC(=O)[C@H](C)NC(=O)[C@H](CCCNC(=N)N)NC(=O)[C@H](CCCCN)NC(=O)[C@H](CCCNC(=N)N)NC(=O)[C@H](CCCCN)NC(=O)[C@@H](N)CCSC)C(C)C)C(C)C)C(=O)N[C@@H](C)C(=O)N[C@@H](CCCNC(=N)N)C(=O)N[C@@H](CC(C)C)C(=O)NCC(=O)N[C@H](C(=O)N[C@@H](C)C(=O)N[C@@H](Cc1ccccc1)C(=O)O)C(C)C [D5-C, reference compound] (H-MKRKRAVKRVGRRLKKLARKIARLGVAF-OH)	32 to 64 µg/mL	16 to 32 µg/mL	16 µg/mL	< 2 µg/mL	16 µg/mL	16 µg/mL	2 µg/mL	4 µg/mL	4 µg/mL	16 to 32 µg/mL	–	–	–	–	–	Disease Incidence, percent leaf disks infected relative to untransformed control [1, 13]: 62% and 68% and 72%; Disease Incidence, percent leaf disks infected relative to untransformed control ([1]; plasmid 165, three distinct plants): 42% and 60% and 67%; Disease Incidence, percent leaf disks infected relative to untransformed control [2, 13]: 31% and 41% and 50%; Disease Incidence, percent leaf disks infected relative to untransformed control ([2]; plasmid 148, three distinct plants): 52% and 70% and 75%
CC[C@H](C)[C@H](NC(=O)CNC(=O)[C@@H](N)CCSC)C(=O)NCC(=O)N[C@@H](CCCCN)C(=O)N[C@@H](Cc1ccccc1)C(=O)N[C@@H](CC(C)C)C(=O)N[C@@H](CCCCN)C(=O)N[C@@H](CO)C(=O)N[C@@H](C)C(=O)N[C@@H](CCCCN)C(=O)N[C@@H](CCCCN)C(=O)N[C@@H](Cc1ccccc1)C(=O)NCC(=O)N[C@@H](CCCCN)C(=O)N[C@@H](C)C(=O)N[C@@H](Cc1ccccc1)C(=O)N[C@H](C(=O)N[C@@H](CCCCN)C(=O)N[C@H](C(=O)N[C@@H](CC(C)C)C(=O)N[C@@H](CC(N)=O)C(=O)N[C@@H](CO)C(=O)O)[C@@H](C)CC)C(C)C [MSI-99] (H-MGIGKFLKSAKKFGKAFVKILNS-OH; N-terminus and C-terminus assumed)	16 µg/mL	16 to 32 µg/mL	64 µg/mL	< 2 µg/mL	4 µg/mL	4 µg/mL	1 µg/mL	4 µg/mL	2 µg/mL	8 to 16 µg/mL	1 µg/mL	8 µg/mL	8 µg/mL	4 µg/mL	–	Disease Incidence, percent leaf disks infected relative to untransformed control [1, 14]: 48% and 61% and 69%; Disease Incidence, percent leaf disks infected relative to untransformed control ([1]; plasmid 168, three distinct plants): 31% and 40% and 52%; Disease Incidence, percent leaf disks infected relative to untransformed control [2, 14]: 26% and 30% and 31%; Disease Incidence, percent leaf disks infected relative to untransformed control ([2]; plasmid 147, three distinct plants): 36% and 60% and 70%
CC[C@H](C)[C@H](NC(=O)CNC(=O)[C@@H](N)CCSC)C(=O)NCC(=O)N[C@@H](CCCCN)C(=O)N[C@@H](Cc1ccccc1)C(=O)N[C@@H](CC(C)C)C(=O)N[C@@H](Cc1c[nH]cn1)C(=O)N[C@@H](CO)C(=O)N[C@@H](C)C(=O)N[C@@H](CCCCN)C(=O)N[C@@H](CCCCN)C(=O)N[C@@H](Cc1ccccc1)C(=O)NCC(=O)N[C@@H](CCCCN)C(=O)N[C@@H](C)C(=O)N[C@@H](Cc1ccccc1)C(=O)N[C@H](C(=O)NCC(=O)N[C@@H](CCC(=O)O)C(=O)N[C@H](C(=O)N[C@@H](CCSC)C(=O)N[C@@H](CC(N)=O)C(=O)N[C@@H](CO)C(=O)O)[C@@H](C)CC)C(C)C [Mag 2] (H-MGIGKFLHSAKKFGKAFVGEIMNS-OH; N-terminus and C-terminus assumed)	16 to 32 µg/mL	> 128 µg/mL	> 256 µg/mL	–	4 µg/mL	8 µg/mL	32 µg/mL	4 to 8 µg/mL	4 µg/mL	> 128 µg/mL	32 µg/mL	8 µg/mL	8 to 16 µg/mL	4 µg/mL	significantly less active	–
CC[C@H](C)[C@H](NC(=O)[C@H](C)NC(=O)CNC(=O)[C@H](C)NC(=O)[C@H](CCCCN)NC(=O)[C@H](CO)NC(=O)[C@H](C)NC(=O)[C@H](CCSC)NC(=O)CN)C(=O)N[C@@H](C)C(=O)NCC(=O)N[C@@H](CCCCN)C(=O)N[C@H](C(=O)N[C@@H](C)C(=O)N[C@@H](CCCCN)C(=O)N[C@H](C(=O)N[C@@H](C)C(=O)N[C@@H](CC(C)C)C(=O)N[C@@H](CCCCN)C(=O)N[C@@H](C)C(=O)N[C@@H](CC(C)C)C(N)=O)C(C)C)[C@@H](C)CC [PGL] (H-GMASKAGAIAGKIAKVALKAL-NH2)	16 to 32 µg/mL	> 128 µg/mL	> 256 µg/mL	–	4 µg/mL	4 to 8 µg/mL	32 µg/mL	8 to 16 µg/mL	4 µg/mL	> 128 µg/mL	> 64 µg/mL	8 µg/mL	4 to 8 µg/mL	4 to 8 µg/mL	significantly less active	–
